Where two headings read alike, the source gives them in different places.
Columns and labels:
Assay type in all cases: cell-based, human
mda-6 (WAF1/CIP1/SDI1) [1] = experiment: Induction of mda-6 (WAF1/CIP1/SDI1) expression in HL-60 cells (Northern blotting, RT-PCR); details: CHX 10 μg/ml 1, 3, 6 or 10 h, without or with TPA 3 nM
Method: HL-60 cells were originally provided by Dr. R. C. Gallo (National Cancer Institute, Bethesda, Md.) (Collins et al., 1978; Huberman & Callaham, 1979). HL-60 cells designated HL-525 were derived by cloning HL-60 cells after subculturing 102 times in the presence of increasing concentrations (up to 3 μM) of TPA at 5- to 8-day intervals (Homma et al., 1986; Mitchell et al., 1986). […] Prior to the experiments described in this study, the HL-525 cells were subcultured more than 20 times in the absence of TPA. Cells were grown in 100-mm tissue culture dishes in RPMI 1640 medium supplemented with 20% fetal bovine serum, penicillin (100 units/ml) and streptomycin (100 μg/ml) (Grand Island Biological Co., NY) at 37° C. in an atmosphere of 5% CO2 in air in a humidified incubator. The 1,25-(OH)2D3(Vit D3) and TPA were dissolved in a final concentration of 0.01% DMSO, and all-trans retinoic acid (RA) was dissolved in 0.1% DMSO in culture medium. […]
RNA was purified by centrifugation through a CsC1 cushion as described by Chirgwin et al. (1979). […] Following hybridization, the filters were washed and exposed for autoradiography (Reddy et al., 1991; Su et al., 1991; Jiang et al., 1992). mda-6 and GAPDH gene expression were also determined by reverse transcription-polymerase chain reaction (RT-PCR) as described (Adollahi et al. 1991; Lin et al., 1994). […]

mda-6 (WAF1/CIP1/SDI1) [2] = details: HL-525; CHX 10 μg/ml 1, 3, 6 or 10 h, without or with TPA 3 nM
Method: HL-60 cells were originally provided by Dr. R. C. Gallo (National Cancer Institute, Bethesda, Md.) (Collins et al., 1978; Huberman & Callaham, 1979). HL-60 cells designated HL-525 were derived by cloning HL-60 cells after subculturing 102 times in the presence of increasing concentrations (up to 3 μM) of TPA at 5- to 8-day intervals (Homma et al., 1986; Mitchell et al., 1986). […] Prior to the experiments described in this study, the HL-525 cells were subcultured more than 20 times in the absence of TPA. Cells were grown in 100-mm tissue culture dishes in RPMI 1640 medium supplemented with 20% fetal bovine serum, penicillin (100 units/ml) and streptomycin (100 μg/ml) (Grand Island Biological Co., NY) at 37° C. in an atmosphere of 5% CO2 in air in a humidified incubator. The 1,25-(OH)2D3(Vit D3) and TPA were dissolved in a final concentration of 0.01% DMSO, and all-trans retinoic acid (RA) was dissolved in 0.1% DMSO in culture medium. […] Control cultures were treated with DMSO at a final concentration of 0.1% in culture medium. For experiments designed to test the effect of DMSO on HL-60 and HL-525 cells, DMSO was added to tissue culture medium at a final concentration of 1%. Stock solutions of CHX (10 mg/ml) were prepared in culture medium. CHX was added at a final concentration of 10 μg/ml. To examine a requirement for protein synthesis on mda-6 gene expression, HL-60 or HL-525 cells were seeded into 150 mm Petri dishes (5×10^5 cells/ml) in 30 ml of medium. CHX was added to a final concentration of 10 μg/ml 15 min prior to the addition of TPA to 3 nM. Cells were harvested at various times after addition of TPA for subsequent RNA isolation and analysis.
RNA was purified by centrifugation through a CsC1 cushion as described by Chirgwin et al. (1979). Ten μg of RNA was denatured with glyoxal/DMSO, electrophoresed on 1.0% agarose gels, transferred to nylon membranes, hybridized to a ^32P-labeled mda-6 probe (Jiang and Fisher, 1993) and then after stripping the membrane hybridized to a ^32P-labeled rat GAPDH probe (Fort et al., 1985), as described previously (Reddy et at., 1991; Su et al., 1991; Jiang et al., 1992). Following hybridization, the filters were washed and exposed for autoradiography (Reddy et al., 1991; Su et al., 1991; Jiang et al., 1992). mda-6 and GAPDH gene expression were also determined by reverse transcription-polymerase chain reaction (RT-PCR) as described (Adollahi et al. 1991; Lin et al., 1994). Total cytoplasmic RNA was treated with 0.5 units DNase (Boehringer-Mannheim Biochemicals)/μg RNA in 15% glycerol, 10 mM Tris, pH 7.5, 2.5 mM MgCl2, 0.1 mM EDTA, 80 mM KC1, 1 mM CaCl2 and 1 unit/ml RNasin (Promega) at 30° C. for 10 min. RNA was extracted with phenol-chloroform, precipitated with sodium acetate/ethanol and RNA pellets were resuspended in diethylpyrocarbonate-treated H2O. One μg of total RNA was reverse transcribed with 200 units of murine leukemia virus reverse transcriptase (Bethesda Research Laboratories) in 20 μl containing 1 mM deoxyribonucleotide triphosphates, 4 mM MgCl2, 10 mM Tris, pH 8.3, 50 mM KC1, 0.001% gelatin and 0.2 μg oligo-dT primer. Samples were diluted to 100 μl with buffer containing 0.2 mM deoxyribonucleotide triphosphates, 2 mM MgCl2, 10 mM Tris, pH 8.3, 50 mM KC1 and 0.001% gelatin. […]

[3] = tested on: MDA-6 (WAF1/CIP1/SDI1) protein; experiment: Immunoprecipitation of MDA-6 (WAF1/CIP1/SDI1) protein in HL-60 cells; details: TPA, DMSO (1%) or RA (1 μM), 12, 24, 48 and 72 h tested
Method: Immunoprecipitation analyses were performed as described previously (Duigou et al., 1991; Su et al. 1993). Logarithmically growing HL-60 cells were either untreated or treated for 12, 24, 48 or 72 h with TPA ([…]), RA (1 μM) or DMSO (1%) in 10-cm plates. Cultures were starved of methionine for 1 h at 37° C. in methionine-free medium, cells were concentrated by pelleting and labeled for 4 h at 37° C. in 1 ml of the same medium with 100 μCi of [^35S] (NEN; Express ^35S). After labeling, the cells were washed twice with ice-cold phosphate-buffered saline and lysed for 1 h on ice by the addition of RIPC (20 mM Tris-base, pH 7.5, 500 mM NaCl, 0.05% Nonidet P-40, 100 μg/ml phenylmethylsulfonyl fluoride and 0.02% sodium azide). The lysate was clarified by centrifugation in an Eppendorf microfuge at 10,000×g for 10 min at 4° C. Samples containing 4×10^6 counts were incubated with 2 μg of WAF1/CIP1 (C-19) (Santa Cruz Biotechnology) (or MDA-6 peptide-derived) rabbit polyclonal IgG or actin monoclonal antibody (Oncogene Sciences) with rocking at 4° C. for 24 h. The next day, 30 μl (packed volume) of protein G-agarose (Oncogene Sciences) was added to each tube, and incubation with rocking at 4° C. continued for another hour. The protein G pellets were then washed five times with 1 ml of ice-cold RIPC:phosphate-buffered saline (1:1, v/v). Thirty μl of sodium dodecyl sulfate-polyacrylamide gel electrophoresis buffer were added to the pellets, and the sample was heated at 87° C. for 3 min. The samples were loaded onto an 10% polyacrylamide gel and run overnight at 40 V. The gel contained Rainbow protein markers (Amersham) for sizing. Gels were fixed with 10% acetic acid plus 10% methanol for 30 min, incubated in DMSO for 30 min, incubated with 10% 2,5-diphenyloxazole in DMSO for 30 min, washed three times with cold water (10 min each), dried and exposed to film.

| SMILES | mda-6 expression in the presence of cycloheximide (mda-6 (WAF1/CIP1/SDI1) [1]) | mda-6 expression in the presence of cycloheximide (mda-6 (WAF1/CIP1/SDI1) [2]) | time of treatment at which MDA-6 protein is detected [3] [h] |
| --- | --- | --- | --- |
| C[C@@H]1C[C@@H]([C@H](O)CC2CC(=O)NC(=O)C2)C(=O)[C@@H](C)C1 [CHX, cycloheximide] | induction of mda-6 | induces mda-6 expression | – |
| C[S+](C)[O-] [DMSO, dimethyl sulfoxide] | – | – | 48 |

Source: patent US7507792B2, “MDA-7 proteins and methods of use thereof” (The Trustees of Columbia University In The City of New York, priority 1993, dated 2009)
